Measured values: patent US9724408B2, “Compositions and methods for activating stimulator of interferon gene-dependent signalling” (ADURO BIOTECH, INC., priority 2013, dated 2017)

How the values were obtained:
[1] = tested on: 4T1; test: Re-challenge of surviving mice with 4T1 tumor cells on the contralateral flank; format: in vivo, BALB/c mice
Protocol: To determine whether the synthetic derivative CDN molecules elicit durable and effective anti-tumor T-cell immunity, 6-8 week old female BALB/c mice (8 mice per group) were implanted with CT26 colon carcinoma cells (1×10^5 cells in 100 μL PBS). Mice were treated with Rp, Rp dithio cyclic [A(2′,5′)pA(3′,5′)p] (ML RR-CDA) compound ([…] in a total volume of 40 μL HBSS) or HBSS vehicle control, and tumor growth was monitored as per previous example. Mice were bled on day 18 post tumor implantation and PBMCs were isolated by Ficoll gradient (Miltenyi Biotech). 5×10^4 PBMCs were stimulated overnight in an IFNγ ELISpot assay with media alone (unstimulated), or with 1 μM of the endogenous H-2 L^d-restricted tumor rejection antigen AH1 peptide in the presence of 1×10^5 naïve splenocytes as feeder cells. IFN-γ ELISpot plates were developed and quantified using a CTL plate reader and ImmunoSpot software. On day 55 post tumor implantation, surviving mice and age-matched naïve control mice were implanted on the contralateral flank with either CT26 or 4T1 (both 1×10^5 cells in 100 μL PBS) tumor cells (4 mice per group), and monitored for tumor growth. […]

[2] = target: T1, hSTING (REF) (Homo sapiens, UniProt Q86WV6); test: IFNβ-LUC reporter in HEK293T cells expressing hSTING (REF); format: cell-based; conditions: 10 μM, digitonin permeabilization, 6 hrs, FIG. 14
T1 construct: GFP; expressed in transfected cells; plasmid from the Vance Laboratory, UC Berkeley
T1 sequence (Q86WV6 whole entry): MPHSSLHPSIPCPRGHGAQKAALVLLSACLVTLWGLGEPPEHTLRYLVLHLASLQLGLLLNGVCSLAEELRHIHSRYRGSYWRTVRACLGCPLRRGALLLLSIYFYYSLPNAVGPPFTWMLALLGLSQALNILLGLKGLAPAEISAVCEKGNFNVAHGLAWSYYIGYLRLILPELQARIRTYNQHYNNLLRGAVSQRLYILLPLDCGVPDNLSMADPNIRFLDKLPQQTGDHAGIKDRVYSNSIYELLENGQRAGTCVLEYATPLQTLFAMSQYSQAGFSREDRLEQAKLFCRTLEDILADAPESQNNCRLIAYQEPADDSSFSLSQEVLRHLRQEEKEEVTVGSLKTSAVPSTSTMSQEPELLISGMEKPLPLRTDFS
Protocol: MSCV2.2 plasmids encoding hSTING(REF)-GFP, hSTING(WT)-GFP, hSTING(HAQ)-GFP, hSTING(Q)-GFP and mSTING(WT)-GFP were obtained from the Vance Laboratory at UC Berkeley. hSTING(AQ)-GFP was derived from hSTING(Q)-GFP using a QuickChange Site-Directed Mutagenesis kit (Stratagene). […] 1×10^4 HEK293T STING cells were seeded in 96-well plates and transiently transfected (using Lipofectamine 2000) with 50 ng of a human IFN-β reporter plasmid (pLuc-IFN-β) expressing the human IFN-β promoter upstream of a luciferase reporter and 10 ng of TK-renilla for normalization. 24 hours later, cells were stimulated with native and synthetic CDN derivative molecules using digitonin permeabalization to ensure uniform uptake. Each STING cell line was stimulated with 10 μM of cyclic [G(3′,5′)pA(3′,5′)p] (cGAMP), cyclic [G(2′,5′)pA(3′,5′)p] […] (RR-CDA), cyclic [A(2′,5′)pA(3′,5′)p] […] (RR-CDG), cyclic [G(2′,5′)pG(3′,5′)p] […] (ML RR-CDG) in 25 ul digitonin buffer (50 mM HEPES, 100 mM KCL, 3 mM MgCl2, 0.1 mM DTT, 85 mM Sucrose, 0.2% BSA, 1 mM ATP, 0.1 mM GTP, 10 ug/ml digitonin). After 20 min, the stimulation mixtures were removed and 200 ul of standard RPMI media was added. After stimulation for 6 hrs, cell lysates were prepared and reporter gene activity measured using the Dual Luciferase Assay System (Promega) on a Spectramax M3 luminometer.

Compound | protection against 4T1 re-challenge, survivors of 4T1 tumors ([1]; re-challenge on day 35 post tumor implantation, FIG. 22B) | protection against 4T1 re-challenge, survivors of CT26 tumors ([1]; re-challenge on day 55 post tumor implantation, FIG. 21C) | IFNβ reporter response of hSTING (REF) [2]
Nc1ncnc2c1ncn2[C@@H]1O[C@@H]2COP(O)(=S)O[C@@H]3C(O)[C@@H](COP(O)(=S)O[C@H]2[C@H]1O)O[C@H]3n1cnc2c(N)ncnc21 (stereo partly drawn) [ML RR-CDA, dithio-[RP, RP]-cyclic-[A(2′,5′)pA(3′,5′)p]] | complete protection | not inhibiting growth of the 4T1 tumor type | 
Nc1nc2c(ncn2[C@@H]2O[C@@H]3CO[P@@](O)(=S)O[C@@H]4[C@H](O)[C@@H](CO[P@@](O)(=S)O[C@H]3[C@H]2O)O[C@H]4n2cnc3c(=O)[nH]c(N)nc32)c(=O)[nH]1 [ML RR-CDG, dithio-[RP,RP]-cyclic-[G(2′,5′)pG(3′,5′)p]] |  |  | responsive to stimulation
